According to ChEMBL document CHEMBL1201862, “PubChem BioAssay data set” (2004):
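Grown in 96-well plates, cells were treated for 48 hours with each compound at five concentrations. Insufficient inhibition: endpoint recorded as highest concentration tested. GI50 = concentration required for 50% inhibition of growth.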 Active and inactive are the calls of the source. Rule as the data show it: active = GI50 up to about 1.1 µM and inactive = higher.

Assays:
Experiment in all cases: inhibition of tumour cell growth, NCI panel, 48 h
786-0 = test system: 786-0
RPMI-8226 = test system: RPMI-8226
SK-MEL-28 = test system: SK-MEL-28
UACC-257 = test system: UACC-257
UO-31 = test system: UO-31
ACHN = test system: ACHN
MOLT-4 = test system: MOLT-4
OVCAR-3 = test system: OVCAR-3
HOP-92 = test system: HOP-92
SK-OV-3 = test system: SK-OV-3
A498 = test system: A498
SW-620 = test system: SW-620
IGROV-1 = test system: IGROV-1
MDA-N = test system: MDA-N
SNB-75 = test system: SNB-75
NCI-H226 = test system: NCI-H226
SK-MEL-5 = test system: SK-MEL-5
SK-MEL-2 = test system: SK-MEL-2
EKVX = test system: EKVX
LOX IMVI = test system: LOX IMVI

Compound | GI50 (786-0) | GI50 (RPMI-8226) | GI50 (SK-MEL-28) | GI50 (UACC-257) | GI50 (UO-31) | GI50 (ACHN) | GI50 (MOLT-4) | GI50 (OVCAR-3) | GI50 (HOP-92) | GI50 (SK-OV-3) | GI50 (A498) | GI50 (SW-620) | GI50 (IGROV-1) | GI50 (MDA-N) | GI50 (SNB-75) | GI50 (NCI-H226) | GI50 (SK-MEL-5) | GI50 (SK-MEL-2) | GI50 (EKVX) | GI50 (LOX IMVI)
O=C(Nc1ccc(Nc2ccc3c(c2)C(=O)c2ccccc2C3=O)c2c1C(=O)c1ccccc1C2=O)c1ccccc1 | 38.8 µM (inactive) | 38.7 µM (inactive) | > 100 µM (inactive) | > 100 µM (inactive) | > 100 µM (inactive) | > 100 µM (inactive) | 11.3 µM (inactive) | 16 µM (inactive) | > 59.7 µM (inactive) | 67.9 µM (inactive) | > 87.7 µM (inactive) | 38.6 µM (inactive) | 32.3 µM (inactive) | 3.05 µM (inactive) | 16.6 µM (inactive) | > 100 µM (inactive) | > 42 µM (inactive) | 11.9 µM (inactive) | > 100 µM (inactive) | > 82.2 µM (inactive)
Oc1cc(O)c2c(c1)O[C@H](c1cc(O)c(O)c(O)c1)[C@@H](O)C2 [GALLOCATECHIN] | 18 µM (inactive) | 20.7 µM (inactive) | 43.3 µM (inactive) | > 100 µM (inactive) | 18.2 µM (inactive) | 21.1 µM (inactive) | > 10 µM (inactive) | 21.8 µM (inactive) | > 10 µM (inactive) | 28.1 µM (inactive) | > 100 µM (inactive) | 17.3 µM (inactive) | 18.8 µM (inactive) | 21.1 µM (inactive) | 17.9 µM (inactive) | 28.8 µM (inactive) | 19.1 µM (inactive) | 24.6 µM (inactive) | 24.8 µM (inactive) | 20.5 µM (inactive)
O=C1C(NCCN2CCOCC2)=C(Cl)C(=O)c2ncccc21 | 0.431 µM (active) | 0.1 µM (active) | 1.61 µM (inactive) |  | 1.12 µM (active) | 1.1 µM (active) | 2.15 µM (inactive) | 0.392 µM (active) | 2.08 µM (inactive) | 1.43 µM (inactive) | 2.03 µM (inactive) | 0.105 µM (active) | 1.05 µM (active) | 0.178 µM (active) | 1.12 µM (inactive) | 1.69 µM (inactive) | 0.312 µM (active) | 0.226 µM (active) | 1.48 µM (inactive) | 0.168 µM (active)
C=CCOC(=O)N1c2ccc(O[Si](C)(C)C(C)(C)C)cc2[C@@]23O[C@@]24[C@@H]1C#C/C=C\C#C[C@]3(O)C(OC)(OC)C[C@@H]4C | 43.5 µM (inactive) | 18.6 µM (inactive) | > 100 µM (inactive) | 19 µM (inactive) | 14.1 µM (inactive) | 10.6 µM (inactive) | 2.89 µM (inactive) | 5.55 µM (inactive) | 18.2 µM (inactive) | 7.36 µM (inactive) | 1.31 µM (inactive) | 14 µM (inactive) | > 100 µM (inactive) | > 57.5 µM (inactive) | 4.82 µM (inactive) | 13.6 µM (inactive) | 18.7 µM (inactive) | > 100 µM (inactive) | > 38.5 µM (inactive) | 16.7 µM (inactive)
CCN(CC)CCNc1ccc([N+](=O)[O-])c2nc3ccc(OC)cc3c(N)c12 | 0.614 µM (active) | 0.243 µM (active) | 1.65 µM (inactive) | 1.77 µM (inactive) | 1.67 µM (inactive) | 1.43 µM (inactive) | 0.301 µM (active) | 1.86 µM (inactive) | 1.34 µM (inactive) | 1.89 µM (inactive) | 1.5 µM (inactive) | 0.191 µM (active) | 0.435 µM (active) | 1.67 µM (inactive) | 1.77 µM (inactive) | 2.32 µM (inactive) | 0.811 µM (active) | 1.05 µM (active) | 1.7 µM (inactive) | 0.172 µM (active)
S=C(N/N=C\C(=N/NC(=S)N1CCCCC1)c1ccccc1)N1CCCCC1 | 1.85 µM (inactive) | 46.1 µM (inactive) | 1.9 µM (inactive) | 2.14 µM (inactive) | 1.74 µM (inactive) | 1.69 µM (inactive) |  | 1.74 µM (inactive) | 2.38 µM (inactive) | 1.91 µM (inactive) | 1.78 µM (inactive) | 2 µM (inactive) | 1.76 µM (inactive) | 2.89 µM (inactive) | 2.1 µM (inactive) | 1.84 µM (inactive) | 1.77 µM (inactive) | 2.25 µM (inactive) | 1.97 µM (inactive) | 3.33 µM (inactive)
COc1ccnc2c1C(=O)c1nc3ccccc3c3ccnc-2c13 | 0.221 µM (active) | 0.201 µM (active) | 0.305 µM (active) | 0.198 µM (active) | 0.161 µM (active) | 0.0634 µM (active) | 1.42 µM (inactive) | 0.0353 µM (active) | 0.342 µM (active) | 0.167 µM (active) | 0.0859 µM (active) | 0.0809 µM (active) | 0.177 µM (active) | 0.25 µM (active) | 0.04 µM (active) | 0.17 µM (active) | 0.0317 µM (active) | 0.789 µM (active) | 0.284 µM (active) | 0.155 µM (active)
OC1OC(c2ccc[nH]2)C(F)(F)C(F)(F)C1(F)F (configuration not stated) | > 100 µM (inactive) | > 100 µM (inactive) | > 100 µM (inactive) | > 100 µM (inactive) | 97.7 µM (inactive) | > 100 µM (inactive) | > 100 µM (inactive) | > 100 µM (inactive) | 68.4 µM (inactive) | > 100 µM (inactive) | > 100 µM (inactive) | > 100 µM (inactive) | > 100 µM (inactive) | > 100 µM (inactive) | 60.8 µM (inactive) | > 100 µM (inactive) | 63.4 µM (inactive) | > 100 µM (inactive) | > 100 µM (inactive) | > 100 µM (inactive)
CC(C)CCCC(C)[C@H]1CC[C@H]2n3c(nnc3-c3ccccc3)CCC[C@]12C (some centres not stated) | 14.6 µM (inactive) | 4.13 µM (inactive) | 16.9 µM (inactive) | 13.3 µM (inactive) | 10.4 µM (inactive) |  | 3.96 µM (inactive) | 10.5 µM (inactive) | 15.1 µM (inactive) | 13.4 µM (inactive) | 14 µM (inactive) | 6.21 µM (inactive) | 5.74 µM (inactive) | 13.6 µM (inactive) | 17.5 µM (inactive) | 14.8 µM (inactive) | 10.7 µM (inactive) | 12.4 µM (inactive) |  | 1.86 µM (inactive)
Cc1cn(CCCCCOC(=O)NC(CCCNC(N)=O)C(=O)O)c(=O)[nH]c1=O (configuration not stated) | > 100 µM (inactive) | > 100 µM (inactive) | > 100 µM (inactive) | > 100 µM (inactive) | > 100 µM (inactive) | > 100 µM (inactive) | > 100 µM (inactive) | > 100 µM (inactive) | > 100 µM (inactive) | > 100 µM (inactive) | > 100 µM (inactive) | > 100 µM (inactive) | 65.3 µM (inactive) | > 100 µM (inactive) | > 100 µM (inactive) | > 100 µM (inactive) |  | > 100 µM (inactive) | > 100 µM (inactive) | > 100 µM (inactive)
CN(C)CCNS(=O)(=O)N(C)C | > 100 µM (inactive) | > 100 µM (inactive) | > 100 µM (inactive) | > 100 µM (inactive) |  | > 100 µM (inactive) | > 100 µM (inactive) | > 100 µM (inactive) | > 100 µM (inactive) | > 100 µM (inactive) | > 100 µM (inactive) | > 100 µM (inactive) | > 100 µM (inactive) | > 100 µM (inactive) | > 100 µM (inactive) | > 100 µM (inactive) | > 100 µM (inactive) | > 100 µM (inactive) | > 100 µM (inactive) | > 100 µM (inactive)
O=C(N/N=C(COc1ccc(Cl)cc1)\N=C\c1cccnc1)c1ccncc1 | > 100 µM (inactive) | 32.5 µM (inactive) | > 100 µM (inactive) | 99.5 µM (inactive) |  | > 100 µM (inactive) | 84.3 µM (inactive) | > 100 µM (inactive) | 24.2 µM (inactive) | > 100 µM (inactive) | 52.6 µM (inactive) | > 100 µM (inactive) | > 100 µM (inactive) | 25.5 µM (inactive) | 55.3 µM (inactive) | 68.2 µM (inactive) |  | > 100 µM (inactive) | > 100 µM (inactive) | > 100 µM (inactive)
CCC(C)SC1SCC2C(=O)N(C)C3(CC3C)C(=O)OCC(NC(=O)c3nc4ccccc4cc3O)C(=O)NC(C)C(=O)N(C)C1C(=O)N(C)C1(CC1C)C(=O)OCC(NC(=O)c1nc3ccccc3cc1O)C(=O)NC(C)C(=O)N2C (configuration not stated) | 3.4e-05 µM (active) | 4.15e-05 µM (active) |  | 5.3e-05 µM (active) | 0.00275 µM (active) |  | 0.000128 µM (active) |  | 5.87e-05 µM (active) | 0.000144 µM (active) | 0.000102 µM (active) | 4.78e-05 µM (active) | 0.000137 µM (active) | 4.71e-05 µM (active) | 2.93e-05 µM (active) | 4.99e-05 µM (active) |  | 4.37e-05 µM (active) | 0.00038 µM (active) | 2.6e-05 µM (active)
CC1=Nc2c(C#N)ncn2N=C(C)C1 | > 100 µM (inactive) | > 100 µM (inactive) | > 100 µM (inactive) | > 100 µM (inactive) | > 100 µM (inactive) | > 100 µM (inactive) | > 100 µM (inactive) | > 100 µM (inactive) | > 100 µM (inactive) | 49 µM (inactive) | > 100 µM (inactive) | > 100 µM (inactive) | > 100 µM (inactive) | > 100 µM (inactive) | > 100 µM (inactive) | > 100 µM (inactive) | > 100 µM (inactive) | > 100 µM (inactive) |  | > 100 µM (inactive)
